≈ marks a conversion by molar mass, not a printed value. Calls of active or inactive are those of the source. The rule behind the calls is not given here.
Legend:
Staphylococcus aureus [1] = test: Induction of intracellular ROS accumulation in Staphylococcus aureus at 1 to 4 times MIC incubated overnight by DCFH-DA dye based analysis; format: functional, organism-based
[2] = test system: Stenotrophomonas maltophilia; test: Antimicrobial activity against Stenotrophomonas maltophilia incubated for 16 to 18 hrs by broth dilution assay; format: functional; details: time 16-18 hrs
Staphylococcus aureus [3] = test: Induction of resistance development in drug-resistant Staphylococcus aureus at sub-MIC measured after 20 passages in presence of norfloxacin; format: functional, organism-based
Escherichia coli = test: Antimicrobial activity against Escherichia coli incubated for 16 to 18 hrs by broth dilution assay; format: functional; details: time 16-18 hrs
Staphylococcus aureus [4] = test: Antibacterial activity against Staphylococcus aureus infected in Kunming mouse model of subcutaneous abscess assessed as reduction in bacterial load in skin tissue at 10 mg/kg, sc measured after 48 hrs relative to control; format: functional; parameters: scale not given: the % may be the effect or the level left
[5] = Hemolytic activity in sheep red blood cells incubated for 1 hr; format: toxicity, cell-based, Ovis aries, Erythrocyte
Staphylococcus aureus [6] = test: Induction of resistance development in drug-resistant Staphylococcus aureus at sub-MIC measured after 20 passages in presence of rifampicin; format: functional, organism-based
Staphylococcus aureus [7] = test: Inhibition of biofilm formation in Staphylococcus aureus assessed as decrease in bacterial count at 32 times MIC incubated for 24 hrs by CLSM analysis; format: functional, organism-based
Staphylococcus aureus [8] = test: Disruption of cell membrane in Staphylococcus aureus assessed as nucleic acid leakage at 32 ug/ml measured after 2 hrs by fluorescence based analysis; format: functional, organism-based; details: dose 32.0 µg/ml
Staphylococcus aureus [9] = test: Induction of resistance development in drug-resistant Staphylococcus aureus at sub-MIC measured after 20 passages in presence of vancomycin; format: functional, organism-based
Staphylococcus aureus [10] = test: Induction of resistance development in drug-resistant Staphylococcus aureus at sub-MIC measured after 20 passages in presence of linezolid; format: functional, organism-based
Staphylococcus aureus [11] = test: Disruption of cell membrane in Staphylococcus aureus assessed as protein leakage at 32 ug/ml measured after 2 hrs by fluorescence based analysis; format: functional, organism-based; details: dose 32.0 µg/ml
Enterococcus faecalis = test: Antimicrobial activity against Enterococcus faecalis incubated for 16 to 18 hrs by broth dilution assay; format: functional; details: time 16-18 hrs
Staphylococcus aureus [12] = test: Antibacterial activity against Staphylococcus aureus in presence of 50% sheep plasma; format: functional, organism-based
Staphylococcus aureus [13] = test: Induction of resistance development in Staphylococcus aureus at sub-MIC measured after 20 passages; format: functional, organism-based
Staphylococcus aureus [14] = test: Bactericidal activity against Staphylococcus aureus measured for 3 to 6 hrs in presence of 50% sheep plasma; format: functional, organism-based; details: time 3-6 hrs
Staphylococcus aureus [15] = test: Induction of resistance development in drug-resistant Staphylococcus aureus at sub-MIC measured after 20 passages in presence of levofloxacin; format: functional, organism-based
Staphylococcus aureus [16] = test: Induction of resistance development in drug-resistant Staphylococcus aureus at sub-MIC measured after 20 passages in presence of cefuroxime sodium; format: functional, organism-based
Staphylococcus aureus [17] = test: Antibacterial activity against Staphylococcus aureus in presence of 50% FBS; format: functional, organism-based
Staphylococcus aureus [18] = test: Antimicrobial activity against Staphylococcus aureus incubated for 16 to 18 hrs by broth dilution assay; format: functional; details: time 16-18 hrs
Staphylococcus aureus [19] = test: Antibacterial activity against rifampicin-induced persistant Staphylococcus aureus assessed as decrease in CFU at 100 times MIC measured for 10 hrs; format: functional, organism-based
Staphylococcus aureus [20] = test: Induction of resistance development in drug-resistant Staphylococcus aureus at sub-MIC measured after 20 passages in presence of ciprofloxacin; format: functional, organism-based
Staphylococcus aureus [21] = test: Induction of resistance development in drug-resistant Staphylococcus aureus at sub-MIC measured after 20 passages in presence of ampicillin sodium; format: functional, organism-based
Staphylococcus aureus [22] = test: Antibacterial activity against Staphylococcus aureus infected in Kunming mouse model of subcutaneous abscess assessed as bacterial count in skin tissue at 10 mg/kg, sc measured after 48 hrs; format: functional
Staphylococcus aureus [23] = test: Antibacterial activity against Staphylococcus aureus assessed as effect on quiescent cells at 100 to 200 times MIC incubated for 24 hrs; format: functional, organism-based

SMILES: CC(=O)OCC1=C(C(=O)O)N2C(=O)[C@@H](NC(=O)Cc3cccs3)[C@H]2SC1 [CEPHALOTHIN]
- Activity (Staphylococcus aureus [1]): inactive
- MIC [2]: 16 µg/mL (≈ 40.4 µM)
- Activity (Staphylococcus aureus [3]): inactive
- MIC (Escherichia coli): 16 µg/mL (≈ 40.4 µM)
- Activity (Staphylococcus aureus [4]): 54%
- HC50 at 1 h [5]: > 1280 µg/mL
- Activity (Staphylococcus aureus [6]): inactive
- inhibition (Staphylococcus aureus [7]): inactive
- Activity (Staphylococcus aureus [8]): inactive
- Activity (Staphylococcus aureus [9]): inactive
- Activity (Staphylococcus aureus [10]): inactive
- Activity (Staphylococcus aureus [11]): inactive
- MIC (Enterococcus faecalis): 32 µg/mL (≈ 80.7 µM)
- Activity (Staphylococcus aureus [12]): Active; Mic Value Of Compound In Plasma Was Equal To Mic In Mhb Medium
- Activity (Staphylococcus aureus [13]): inactive
- Activity (Staphylococcus aureus [14]): Active
- Activity (Staphylococcus aureus [15]): inactive
- Activity (Staphylococcus aureus [16]): inactive
- Activity (Staphylococcus aureus [17]): Active; Mic Value Of Compound In Serum Was Equal To Mic In Mhb Medium
- MIC (Staphylococcus aureus [18]): 0.25 µg/mL (≈ 0.631 µM)
- Activity (Staphylococcus aureus [19]): inactive
- Activity (Staphylococcus aureus [20]): inactive
- Activity (Staphylococcus aureus [21]): inactive
- Activity (Staphylococcus aureus [22]): ~2 10^7CFU/ml
- Activity (Staphylococcus aureus [23]): inactive
